What all share (format): functional
In assay [1] the test system is Escherichia coli. Nature of the assay: Antibacterial activity against Escherichia coli ATCC 25922 assessed as inhibition of bacterial growth.
Assay [2] deals with Ralstonia solanacearum. Briefly: Antibacterial activity against Ralstonia solanacearum Px1 assessed as inhibition of bacterial growth at 16 ug/ml.
The subject of assay [3] is Staphylococcus aureus. Briefly: Antibacterial activity against Staphylococcus aureus ATCC 29213 assessed as inhibition of bacterial growth at 16 ug/ml.
Assay [4] concerns Pseudomonas aeruginosa. Nature of the assay: Antibacterial activity against Pseudomonas aeruginosa PA14 assessed as inhibition of bacterial growth.
Assay [5] has as its system Staphylococcus aureus. Nature of the assay: Antibacterial activity against Staphylococcus aureus ATCC 29213 assessed as inhibition of bacterial growth.
Assay [6] deals with Ralstonia solanacearum. Briefly: Antibacterial activity against Ralstonia solanacearum Px1 assessed as inhibition of bacterial growth.

The structures appear in SMILES notation. ≈ marks a conversion by molar mass, not a printed value.

On to `CC1=CC[C@H]2C(C)(C)CCC[C@]2(C)[C@H]1Cc1c(C)[nH]c2ccccc12`, for which the “inhibition (INH)” value in assay [1] and in assay [4] was 0% each time. The inhibition at 16 µg/mL was 95% in assay [2] and 0% in assay [3].

For `Cc1c(C[C@@H]2[C@@]3(C)CCCC(C)(C)[C@@H]3CC[C@@]2(C)O)c2ccccc2n1Cc1ccc(F)cc1`, the “inhibition (INH)” value in assay [1] and in assay [4] was 0% in each case. Also, the inhibition at 16 µg/mL in assay [2] and in assay [3] was 0% each time.

For `Cc1c(C[C@@H]2[C@@]3(C)CCCC(C)(C)[C@@H]3CC[C@@]2(C)O)c2ccccc2n1-c1ccc(C(F)(F)F)cc1`, the “inhibition (INH)” value in assay [1] and in assay [4] was 0% throughout. In addition, the inhibition at 16 µg/mL in assay [2] and in assay [3] was 0% in each case.

Regarding `S=c1[nH]nc(NCNc2n[nH]c(=S)s2)s1`, the minimum inhibitory concentration (MIC) came out at 256 µg/mL (≈ 919 µM) in assay [5] and 128 µg/mL (≈ 460 µM) in assay [6]. The inhibition at 16 µg/mL in assay [2] and in assay [3] was 0% in each case.

As to `Cc1c(C[C@@H]2[C@@]3(C)CCCC(C)(C)[C@@H]3CC[C@@]2(C)O)c2ccccc2n1Cc1ccccc1`, the “inhibition (INH)” value in assay [1] and in assay [4] was 0% in each case. The inhibition at 16 µg/mL in assay [2] and in assay [3] was 0% each time.

On to `C=CCn1c(C)c(C[C@@H]2[C@@]3(C)CCCC(C)(C)[C@@H]3CC[C@@]2(C)O)c2ccccc21`, for which the “inhibition (INH)” value in assay [1] and in assay [4] was 0% in each case. In addition, the inhibition at 16 µg/mL in assay [2] and in assay [3] was 0% each time.

Consider `Cc1c(C[C@@H]2[C@@]3(C)CCCC(C)(C)[C@@H]3CC[C@@]2(C)O)c2ccccc2n1-c1ccc(F)cc1`, for which the “inhibition (INH)” value in assay [1] and in assay [4] was 0% in each case. Further, the inhibition at 16 µg/mL in assay [2] and in assay [3] was 0% each time.

With `Cc1c(C[C@@H]2[C@@]3(C)CCCC(C)(C)[C@@H]3CC[C@@]2(C)O)c2ccccc2n1C(=O)c1ccccc1`, the “inhibition (INH)” value in assay [1] and in assay [4] was 0% throughout. Moreover, the inhibition at 16 µg/mL in assay [2] and in assay [3] was 0% throughout.

In the case of `Cc1c(C[C@@H]2[C@@]3(C)CCCC(C)(C)[C@@H]3CC[C@@]2(C)O)c2ccccc2n1-c1ccccc1`, the “inhibition (INH)” value in assay [1] and in assay [4] was 0% in each case. In addition, the inhibition at 16 µg/mL in assay [2] and in assay [3] was 0% throughout.

As for `Cc1ccc(Cn2c(C)c(C[C@@H]3[C@@]4(C)CCCC(C)(C)[C@@H]4CC[C@@]3(C)O)c3ccccc32)cc1`, the “inhibition (INH)” value in assay [1] and in assay [4] was 0% in each case. Further, the inhibition at 16 µg/mL in assay [2] and in assay [3] was 0% throughout.

Regarding `Cc1[nH]c2ccccc2c1C[C@@H]1[C@@]2(C)CCCC(C)(C)[C@@H]2CC[C@@]1(C)O`, the “inhibition (INH)” value in assay [1] and in assay [4] was 0% each time. The inhibition at 16 µg/mL was over 99% in assay [2] and 93% in assay [3]. In addition, the MIC in assay [6] was 8 µg/mL (≈ 22.6 µM).

For `Cc1c(C[C@@H]2[C@@]3(C)CCCC(C)(C)[C@@H]3CC[C@@]2(C)O)c2ccccc2n1C`, the “inhibition (INH)” value in assay [1] and in assay [4] was 0% in each case. The inhibition at 16 µg/mL in assay [2] and in assay [3] was 0% in each case.

As to `Cc1ccc(-n2c(C)c(C[C@@H]3[C@@]4(C)CCCC(C)(C)[C@@H]4CC[C@@]3(C)O)c3ccccc32)cc1`, the “inhibition (INH)” value in assay [1] and in assay [4] was 0% in each case. Also, the inhibition at 16 µg/mL in assay [2] and in assay [3] was 0% each time.

In the case of `C=C[C@](C)(O)CC[C@@H]1[C@@]2(C)CCCC(C)(C)[C@@H]2CC[C@@]1(C)O` [SCLAREOL], the results for the MIC in assay [5] and in assay [6] were 16 µg/mL (≈ 51.9 µM) and 32 µg/mL (≈ 104 µM), respectively. Besides, the “inhibition (INH)” value in assay [1] and in assay [4] was 0% in each case. The inhibition at 16 µg/mL is 65% in assay [2] and over 99% in assay [3].

Regarding `CN[C@H](CC(C)C)C(=O)N[C@H]1C(=O)N[C@@H](CC(N)=O)C(=O)N[C@H]2C(=O)N[C@H]3C(=O)N[C@H](C(=O)N[C@H](C(=O)O)c4cc(O)cc(O)c4-c4cc3ccc4O)[C@H](O)c3ccc(c(Cl)c3)Oc3cc2cc(c3O[C@@H]2O[C@H](CO)[C@@H](O)[C@H](O)[C@H]2O[C@H]2C[C@](C)(N)[C@H](O)[C@H](C)O2)Oc2ccc(cc2Cl)[C@H]1O` [VANCOMYCIN], the inhibition at 16 µg/mL in assay [2] and in assay [3] was over 99% throughout. Besides, in assay [6], the MIC was under 0.5 µg/mL.

In the case of `Cc1c2c3ccccc3n1[C@]1(C)CC[C@H]3C(C)(C)CCC[C@]3(C)[C@H]1C2`, the “inhibition (INH)” value in assay [1] and in assay [4] was 0% throughout. Also, the inhibition at 16 µg/mL in assay [2] and in assay [3] was 0% each time.

`CCn1c(C)c(C[C@@H]2[C@@]3(C)CCCC(C)(C)[C@@H]3CC[C@@]2(C)O)c2ccccc21`: the “inhibition (INH)” value in assay [1] and in assay [4] was 0% in each case. Moreover, the inhibition at 16 µg/mL in assay [2] and in assay [3] was 0% throughout.

As to `Cc1c(C[C@@H]2[C@@]3(C)CCCC(C)(C)[C@@H]3CC[C@@]2(C)O)c2ccccc2n1Cc1ccc(C(F)(F)F)cc1`, the “inhibition (INH)” value in assay [1] and in assay [4] was 0% throughout. Besides, the inhibition at 16 µg/mL in assay [2] and in assay [3] was 0% in each case.

For `C=C1CC[C@H]2C(C)(C)CCC[C@]2(C)[C@H]1Cc1c(C)[nH]c2ccccc12`, the “inhibition (INH)” value in assay [1] and in assay [4] was 0% throughout. In addition, the inhibition at 16 µg/mL in assay [2] is over 99%; in assay [3] it was 0%. For the same compound, the minimum inhibitory concentration (MIC) in assay [6] was 16 µg/mL (≈ 47.7 µM).

`C=CCCn1c(C)c(C[C@@H]2[C@@]3(C)CCCC(C)(C)[C@@H]3CC[C@@]2(C)O)c2ccccc21`: the “inhibition (INH)” value in assay [1] and in assay [4] was 0% in each case. Also, the inhibition at 16 µg/mL in assay [2] and in assay [3] was 0% throughout.

For `CC1=C(Cc2c(C)[nH]c3ccccc23)[C@@]2(C)CCCC(C)(C)[C@@H]2CC1`, the “inhibition (INH)” value in assay [1] and in assay [4] was 0% each time. For the same compound, the inhibition at 16 µg/mL in assay [2] was determined as 92%; in assay [3] it was 0%.

The values above are taken from ChEMBL document CHEMBL6087429, “Synthesis of drimanyl indole fragments of drimentine alkaloids and their antibacterial activities” (2025).
